Measurements as given in ChEMBL document CHEMBL1201862, “PubChem BioAssay data set” (2004).
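Results reflect a 48-hour exposure of cells in 96-well plates to compound at five concentrations. GI50 = concentration required for 50% inhibition of growth.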 Active and inactive are the calls of the source. Cut-off read from the data, not from the text of the source: active = GI50 up to about 1.1 µM and inactive = higher. Positions of bridges follow the written chain, without caps; N, C: chain ends. Non-standard residues stand in square brackets, D forms with d. Residues, ends and D or L forms follow the SMILES beside them. Aib = CC(C)(N)C(=O)O; βAla = NCCC(=O)O

Legend:
Assay in all cases: NCI-60 cell line screen, 48 h
786-0 = test system: 786-0
A498 = test system: A498
A549 = test system: A549
COLO 205 = test system: COLO 205
DU-145 = test system: DU-145
HCT-116 = test system: HCT-116
HOP-92 = test system: HOP-92
HT-29 = test system: HT-29
KM12 = test system: KM12
M14 = test system: M14
MDA-N = test system: MDA-N
NCI-H226 = test system: NCI-H226
NCI-H522 = test system: NCI-H522
PC-3 = test system: PC-3
SF-295 = test system: SF-295
SF-539 = test system: SF-539
SK-MEL-2 = test system: SK-MEL-2
SK-MEL-5 = test system: SK-MEL-5
SN12C = test system: SN12C
U-251 = test system: U-251

Row | SMILES | GI50 (786-0) | GI50 (A498) | GI50 (A549) | GI50 (COLO 205) | GI50 (DU-145) | GI50 (HCT-116) | GI50 (HOP-92) | GI50 (HT-29) | GI50 (KM12) | GI50 (M14) | GI50 (MDA-N) | GI50 (NCI-H226) | GI50 (NCI-H522) | GI50 (PC-3) | GI50 (SF-295) | GI50 (SF-539) | GI50 (SK-MEL-2) | GI50 (SK-MEL-5) | GI50 (SN12C) | GI50 (U-251)
1 | COc1ccc(Nc2nc(N)c(C(=O)c3ccco3)s2)cc1 | > 40 µM (inactive) | 13.2 µM (inactive) | 27.3 µM (inactive) | 13.4 µM (inactive) | 38.4 µM (inactive) | 9.23 µM (inactive) | > 92.7 µM (inactive) | 7.78 µM (inactive) | 8.59 µM (inactive) | 65.2 µM (inactive) | 4.11 µM (inactive) | 33.9 µM (inactive) | 7.71 µM (inactive) | 53.6 µM (inactive) | 31.6 µM (inactive) | 16.6 µM (inactive) | 23 µM (inactive) | 14.5 µM (inactive) | > 70.8 µM (inactive) | 40.4 µM (inactive)
2 | CC(=O)OC1COC(n2nc(N)nc2C)C(OC(C)=O)C1OC(C)=O (configuration not stated) | > 100 µM (inactive) | > 100 µM (inactive) | > 100 µM (inactive) | > 100 µM (inactive) | > 100 µM (inactive) | > 100 µM (inactive) | > 100 µM (inactive) | > 100 µM (inactive) | > 100 µM (inactive) | > 100 µM (inactive) | > 100 µM (inactive) | > 100 µM (inactive) | > 100 µM (inactive) | > 100 µM (inactive) | > 100 µM (inactive) | – | > 100 µM (inactive) | > 100 µM (inactive) | > 100 µM (inactive) | > 100 µM (inactive)
3 | CC(C)[C@@H]1NC(=O)[C@@H]2N=C(O[C@H]2C)[C@H](C(C)C)NC(=O)C2N=C1O[C@H]2C | > 100 µM (inactive) | > 100 µM (inactive) | > 100 µM (inactive) | > 100 µM (inactive) | > 100 µM (inactive) | > 100 µM (inactive) | 94.4 µM (inactive) | > 100 µM (inactive) | > 100 µM (inactive) | > 100 µM (inactive) | > 100 µM (inactive) | > 100 µM (inactive) | > 100 µM (inactive) | > 100 µM (inactive) | > 100 µM (inactive) | > 100 µM (inactive) | > 100 µM (inactive) | > 100 µM (inactive) | > 100 µM (inactive) | –
4 | O=C1/C(=C/c2ccc([N+](=O)[O-])cc2)CNC/C1=C\c1ccc([N+](=O)[O-])cc1 | 1.13 µM (inactive) | 16.6 µM (inactive) | 17.5 µM (inactive) | 5.62 µM (inactive) | 10.8 µM (inactive) | 0.63 µM (active) | 22.1 µM (inactive) | 1.41 µM (inactive) | 1.36 µM (inactive) | 12.5 µM (inactive) | 6.27 µM (inactive) | 15 µM (inactive) | 2.52 µM (inactive) | 6.7 µM (inactive) | 10.2 µM (inactive) | 2.09 µM (inactive) | 31.8 µM (inactive) | 10.8 µM (inactive) | 5.41 µM (inactive) | 0.469 µM (active)
5 | CC1(C)NC(=O)C(NC(=O)C(N)CC(=O)O)CCCCNC(=O)CCNC1=O (configuration not stated) (H-DK[Aib][βAla]; lactam 2-C; configuration not given here) | > 100 µM (inactive) | > 100 µM (inactive) | > 100 µM (inactive) | > 100 µM (inactive) | > 100 µM (inactive) | > 100 µM (inactive) | > 100 µM (inactive) | > 100 µM (inactive) | > 100 µM (inactive) | > 100 µM (inactive) | > 100 µM (inactive) | > 100 µM (inactive) | > 100 µM (inactive) | > 100 µM (inactive) | > 100 µM (inactive) | > 100 µM (inactive) | > 100 µM (inactive) | > 100 µM (inactive) | – | > 100 µM (inactive)
